This note sets out measurements from paper PMC5421785, “Citrullination only infrequently impacts peptide binding to HLA class II MHC” (PLoS ONE, 2017).

One assay has as its target T1, HLA-DRB1*01:01 (Homo sapiens, UniProt P01903+P01911, A100R/D57E/F55L/F60I/F76Y/I96L/L162R/M171V/P40L/Q125E/R42F/V115G/Y59C).
T1 construct: EBV transformed homozygous cell lines were used as sources of MHC molecules; endogenous in cells; host or cells: EBV transformed homozygous cell lines
Put plainly: HLA class II peptide binding, inhibition of radiolabeled peptide binding to purified MHC. Particulars: for IC50: read-out: DRB1*01:01 binding capacity, Cit peptide (IC50 nM); for DRB1*01:01 binding capacity, WT/cit ratio: ratio of WT IC50 to Cit IC50, >1 = citrullination increases binding.

In the next assay the target is T2, HLA-DRB1*04:01 (Homo sapiens, UniProt P01903+P01911, A100K/A169T/F76Y/I96L/K127E/L162R/M171V/N62H/P40V/Q125Y/R42H/S133A/S149N/S66Y/V115G/V209L/W38E).
T2 construct: EBV transformed homozygous cell lines were used as sources of MHC molecules; endogenous in cells; host or cells: EBV transformed homozygous cell lines
The description is as above. The note with it: for IC50: read-out: DRB1*04:01 binding capacity, Cit peptide (IC50 nM); for DRB1*04:01 binding capacity, WT/cit ratio: ratio of WT IC50 to Cit IC50, >1 = citrullination increases binding.

Setting [1] is: citrullinated 15-mer (X), purified MHC, inhibition of radiolabeled peptide binding, dash = IC50 >40,000 nM.
Setting [2] is: citrullinated 15-mer peptide (X = citrulline), […].
Setting [3] is: citrullinated 15-mer peptide (X = citrulline), purified HLA-DRB1*01:01.
[4] abbreviates: citrullinated 15-mer peptide (X = citrulline), purified HLA-DRB1*04:01.

For orientation: IC50 means the concentration needed to halve the response being measured.

Read-outs that look alike come from different tables or passages of the source. Square brackets hold non-standard residues; d marks the D form. Peptide text beside a SMILES is read from it. Cit = NC(=O)NCCC[C@H](N)C(=O)O A value given as a limit tells only on which side of the number the result lay.

On to `CC(C)C[C@H](NC(=O)[C@H](CO)NC(=O)[C@H](C)NC(=O)[C@H](CC(N)=O)NC(=O)[C@H](CC(=O)O)NC(=O)[C@@H](NC(=O)[C@H](CC(=O)O)NC(=O)[C@H](CCC(N)=O)NC(=O)[C@H](CCCNC(N)=O)NC(=O)[C@H](Cc1ccccc1)NC(=O)[C@H](CO)NC(=O)[C@H](CCC(N)=O)NC(=O)[C@H](CC(C)C)NC(=O)[C@@H](NC(=O)[C@@H](N)CC(N)=O)[C@@H](C)O)C(C)C)C(=O)O` [NTLQSFXQDVDNASL] (H-NTLQSF[Cit]QDVDNASL-OH), for which the figures for the IC50 at HLA-DRB1*01:01 (setting [1]) and on HLA-DRB1*04:01 (setting [1]) were 2000 nM and 702 nM, respectively.
On the same counts, the results for `CC[C@H](C)[C@H](NC(=O)[C@H](CCCCN)NC(=O)[C@H](CC(N)=O)NC(=O)[C@H](CCC(N)=O)NC(=O)[C@H](CCC(N)=O)NC(=O)[C@H](CCC(=O)O)NC(=O)[C@H](CC(C)C)NC(=O)[C@H](Cc1ccccc1)NC(=O)[C@H](CCCNC(N)=O)NC(=O)[C@@H](NC(=O)[C@H](CCCCN)NC(=O)[C@H](CC(=O)O)NC(=O)[C@@H](NC(=O)[C@H](Cc1ccc(O)cc1)NC(=O)[C@@H](N)CC(N)=O)[C@@H](C)CC)C(C)C)C(=O)O` [NYIDKVXFLEQQNKI] (H-NYIDKV[Cit]FLEQQNKI-OH) are 102 nM and 1210 nM.
On to `CC[C@H](C)[C@H](NC(=O)[C@H](CCCNC(N)=O)NC(=O)[C@H](CS)NC(=O)[C@@H]1CCCN1)C(=O)N[C@@H](CS)C(=O)N[C@H](C(=O)N[C@@H](CS)C(=O)N[C@@H](CC(=O)O)C(=O)N[C@H](C(=O)NCC(=O)N[C@H](C(=O)N[C@H](C(=O)N[C@@H](CC(C)C)C(=O)N[C@@H](CS)C(=O)N[C@@H](CC(=O)O)C(=O)O)C(C)C)[C@@H](C)O)[C@@H](C)O)C(C)C` [PCXICVCDTGTVLCD] (H-PC[Cit]ICVCDTGTVLCD-OH; N-terminus and C-terminus assumed), for which the “DRB1*01:01 binding capacity, WT/cit ratio” value on HLA-DRB1*01:01 is 0.463. At HLA-DRB1*04:01, the “DRB1*04:01 binding capacity, WT/cit ratio” value was 1.2.
`C[C@H](NC(=O)CNC(=O)[C@H](CCC(N)=O)NC(=O)[C@@H]1CCCN1C(=O)CNC(=O)[C@@H]1CCCN1C(=O)[C@@H]1CCCN1C(=O)CNC(=O)[C@H](CCCNC(N)=O)NC(=O)[C@@H]1CCCN1C(=O)CNC(=O)[C@@H]1CCCN1C(=O)[C@H](Cc1ccccc1)NC(=O)CNC(=O)[C@@H]1CCCN1)C(=O)O` [PGFPGPXGPPGPQGA] (H-PGFPGP[Cit]GPPGPQGA-OH): the IC50 at HLA-DRB1*01:01 (setting [2]) is > 40000 nM; on HLA-DRB1*04:01 (setting [2]), 37800 nM.
Turning to `CC[C@H](C)[C@H](NC(=O)CNC(=O)[C@@H]1CCCN1)C(=O)N[C@@H](CC(=O)O)C(=O)N[C@@H](CCSC)C(=O)N[C@@H](CO)C(=O)N[C@@H](C)C(=O)N[C@@H](Cc1ccccc1)C(=O)N[C@@H](C)C(=O)NCC(=O)N[C@@H](CC(C)C)C(=O)NCC(=O)N1CCC[C@H]1C(=O)N[C@@H](CCCNC(N)=O)C(=O)N[C@@H](CCC(=O)O)C(=O)O` [PGIDMSAFAGLGPXE] (H-PGIDMSAFAGLGP[Cit]E-OH), the IC50 at HLA-DRB1*01:01 (setting [3]) turned out to be 122 nM; at HLA-DRB1*04:01 (setting [4]), 12900 nM.
On to `CC[C@H](C)[C@H](NC(=O)CNC(=O)[C@H](C)NC(=O)[C@H](C)NC(=O)CNC(=O)[C@H](CCCNC(N)=O)NC(=O)[C@H](CCC(=O)O)NC(=O)CNC(=O)[C@@H]1CCCN1C(=O)[C@H](CCSC)NC(=O)CNC(=O)[C@H](CCC(N)=O)NC(=O)[C@H](CC(C)C)NC(=O)CNC(=O)[C@@H]1CCCN1)C(=O)O` [PGLQGMPGEXGAAGI] (H-PGLQGMPGE[Cit]GAAGI-OH), for which the IC50 on HLA-DRB1*01:01 (setting [3]) is 55 nM; at HLA-DRB1*04:01 (setting [4]), 4170 nM.
Regarding `CC(C)C[C@H](NC(=O)CNC(=O)[C@@H]1CCCN1)C(=O)N[C@@H](CCCNC(N)=O)C(=O)NCC(=O)N[C@@H](CC(C)C)C(=O)N1CCC[C@H]1C(=O)NCC(=O)N[C@@H](CCCCN)C(=O)N[C@@H](CC(=O)O)C(=O)NCC(=O)N[C@@H](CCC(=O)O)C(=O)N[C@H](C(=O)NCC(=O)N[C@@H](C)C(=O)O)[C@@H](C)O` [PGLXGLPGKDGETGA] (H-PGL[Cit]GLPGKDGETGA-OH), the IC50 at HLA-DRB1*01:01 (setting [3]) was 109 nM; at HLA-DRB1*04:01 (setting [4]), > 40000 nM.
Consider `C[C@H](NC(=O)[C@@H]1CCCN1C(=O)CNC(=O)[C@@H]1CCCN1)C(=O)NCC(=O)N1CCC[C@H]1C(=O)N[C@H](C(=O)NCC(=O)N[C@@H](CCCCN)C(=O)N[C@@H](CCC(N)=O)C(=O)NCC(=O)N[C@@H](CC(=O)O)C(=O)N[C@@H](CCCNC(N)=O)C(=O)NCC(=O)N[C@@H](CCC(=O)O)C(=O)O)[C@@H](C)O` [PGPAGPTGKQGDXGE] (H-PGPAGPTGKQGD[Cit]GE-OH; N-terminus and C-terminus assumed), for which the IC50 at HLA-DRB1*01:01 (setting [3]) and at HLA-DRB1*04:01 (setting [4]) was > 40000 nM in each case. In addition, the “DRB1*01:01 binding capacity, WT/cit ratio” value at HLA-DRB1*01:01 was determined as 1.0. For the same compound, the “DRB1*04:01 binding capacity, WT/cit ratio” value at HLA-DRB1*04:01 was 1.0.
With `CC[C@H](C)[C@H](NC(=O)CNC(=O)[C@H](CCCNC(N)=O)NC(=O)[C@H](CCC(N)=O)NC(=O)CNC(=O)[C@H](C)NC(=O)[C@H](CC(C)C)NC(=O)CNC(=O)[C@H](CCC(N)=O)NC(=O)[C@@H]1CCCN1C(=O)CNC(=O)[C@@H]1CCCN1)C(=O)N[C@H](C(=O)NCC(=O)N[C@@H](CC(C)C)C(=O)O)C(C)C` [PGPQGLAGQXGIVGL], the IC50 came to 7.1 nM on HLA-DRB1*01:01 (setting [3]) and 7920 nM at HLA-DRB1*04:01 (setting [4]).
For the compound `CC(C)C[C@H](NC(=O)CNC(=O)[C@@H]1CCCN1C(=O)[C@H](Cc1ccccc1)NC(=O)CNC(=O)[C@H](CCCNC(N)=O)NC(=O)[C@H](CCC(=O)O)NC(=O)CNC(=O)[C@H](CCCNC(=N)N)NC(=O)[C@H](CCC(N)=O)NC(=O)CNC(=O)[C@@H]1CCCN1)C(=O)N1CCC[C@H]1C(=O)NCC(=O)N1CCC[C@H]1C(=O)O` [PGQRGEXGFPGLPGP] (H-PGQRGE[Cit]GFPGLPGP-OH), the IC50 on HLA-DRB1*01:01 (setting [3]) was 10500 nM; on HLA-DRB1*04:01 (setting [4]), > 40000 nM.
On to `CC(C)C[C@H](NC(=O)CNC(=O)[C@@H]1CCCN1C(=O)[C@H](Cc1ccccc1)NC(=O)CNC(=O)[C@H](CCCNC(=N)N)NC(=O)[C@H](CCC(=O)O)NC(=O)CNC(=O)[C@H](CCCNC(N)=O)NC(=O)[C@H](CCC(N)=O)NC(=O)CNC(=O)[C@@H]1CCCN1)C(=O)N1CCC[C@H]1C(=O)NCC(=O)N1CCC[C@H]1C(=O)O` [PGQXGERGFPGLPGP] (H-PGQ[Cit]GERGFPGLPGP-OH), for which the IC50 on HLA-DRB1*01:01 (setting [3]) was 6470 nM; on HLA-DRB1*04:01 (setting [4]), > 40000 nM.
`CC(C)C[C@H](NC(=O)[C@H](CO)NC(=O)[C@H](CO)NC(=O)[C@H](Cc1ccccc1)NC(=O)[C@H](CC(N)=O)NC(=O)[C@@H]1CCCN1)C(=O)N[C@@H](CC(N)=O)C(=O)N[C@@H](CC(C)C)C(=O)N[C@@H](CCCNC(N)=O)C(=O)N[C@@H](CCC(=O)O)C(=O)N[C@H](C(=O)N[C@@H](CC(N)=O)C(=O)N[C@@H](CC(C)C)C(=O)N[C@@H](CC(=O)O)C(=O)N[C@@H](CO)C(=O)O)[C@@H](C)O` [PNFSSLNLXETNLDS] (H-PNFSSLNL[Cit]ETNLDS-OH): the figures for the IC50 at HLA-DRB1*01:01 (setting [3]) and on HLA-DRB1*04:01 (setting [4]) were 448 nM and 1950 nM, respectively.
For `C[C@H](NC(=O)[C@@H]1CCCN1C(=O)CNC(=O)[C@H](CCC(N)=O)NC(=O)[C@@H]1CCCN1C(=O)CNC(=O)[C@@H]1CCCN1C(=O)[C@@H]1CCCN1)C(=O)NCC(=O)N[C@@H](CCC(=O)O)C(=O)N[C@@H](CCC(N)=O)C(=O)NCC(=O)N1CCC[C@H]1C(=O)N[C@@H](CCCNC(N)=O)C(=O)NCC(=O)O` [PPGPQGPAGEQGPXG] (H-PPGPQGPAGEQGP[Cit]G-OH), the half-inhibitory concentration (IC50) is 35600 nM at HLA-DRB1*01:01 (setting [2]) and > 40000 nM at HLA-DRB1*04:01 (setting [2]).
As for `CC(C)C[C@H](NC(=O)[C@H](CO)NC(=O)[C@H](CCCNC(N)=O)NC(=O)[C@H](CO)NC(=O)[C@@H](NC(=O)[C@H](CO)NC(=O)[C@@H]1CCCN1)[C@@H](C)O)C(=O)N[C@@H](Cc1ccc(O)cc1)C(=O)N[C@@H](C)C(=O)N[C@@H](CO)C(=O)N[C@@H](CO)C(=O)N1CCC[C@H]1C(=O)NCC(=O)NCC(=O)N[C@H](C(=O)O)C(C)C` [PSTSXSLYASSPGGV], the values for the IC50 on HLA-DRB1*01:01 (setting [1]) and at HLA-DRB1*04:01 (setting [1]) were 524 nM and 2520 nM, respectively.
Consider `C[C@H](NC(=O)CNC(=O)[C@H](C)NC(=O)[C@H](CCC(=O)O)NC(=O)CNC(=O)[C@H](CCCNC(N)=O)NC(=O)[C@H](CC(=O)O)NC(=O)CNC(=O)[C@H](CCC(N)=O)NC(=O)[C@H](CCCCN)NC(=O)CNC(=O)[C@@H](NC(=O)[C@@H]1CCCN1)[C@@H](C)O)C(=O)N[C@@H](CCC(N)=O)C(=O)NCC(=O)O` [PTGKQGDXGEAGAQG] (H-PTGKQGD[Cit]GEAGAQG-OH; N-terminus and C-terminus assumed), for which the IC50 at HLA-DRB1*01:01 (setting [3]) and on HLA-DRB1*04:01 (setting [4]) was > 40000 nM throughout. Also, the “DRB1*01:01 binding capacity, WT/cit ratio” value on HLA-DRB1*01:01 came to 0.6. Besides, at HLA-DRB1*04:01, the “DRB1*04:01 binding capacity, WT/cit ratio” value was determined as 1.0.
Regarding `CC(C)[C@H](NC(=O)[C@H](CCC(N)=O)NC(=O)[C@H](CCCNC(N)=O)NC(=O)[C@H](CCCNC(=N)N)NC(=O)[C@H](Cc1ccc(O)cc1)NC(=O)[C@H](CCC(=O)O)NC(=O)[C@@H](NC(=O)[C@H](CO)NC(=O)[C@H](CCC(=O)O)NC(=O)[C@H](CCC(N)=O)NC(=O)[C@H](CCCCN)NC(=O)[C@H](C)NC(=O)[C@@H](N)CCC(N)=O)[C@@H](C)O)C(=O)N[C@@H](CCC(N)=O)C(=O)N[C@@H](CO)C(=O)O` [QAKQESTEYRXQVQS] (H-QAKQESTEYR[Cit]QVQS-OH), the IC50 worked out at 1740 nM on HLA-DRB1*01:01 (setting [3]) and 7440 nM on HLA-DRB1*04:01 (setting [4]).
